This is an account of results in patent US20060189546A1, “Compounds for treating autoimmune and demyelinating diseases” (priority 2005, published 2006).

The subject of series [1] is Collagen Antibody Induced Arthritis. As to conditions: Lange et al., Annals of Rheumatoid Disease 64:599-605, 2005; cited from earlier work.
Another series relates to IL-4. Put plainly: Mediator release, IL-4 (Con A-stimulated PBML, sandwich ELISA). Type of series: cell-based. As to conditions: Homo sapiens. The protocol: (§1) In this experiment, test compound and/or vehicle were preincubated with human peripheral blood mononuclear leukocyte (PBML, 1×10^6/ml) in RPMI buffer pH 7.4 for 2 hours. Concanavalin A (Con A, 20 μg/ml) was then added to stimulate the cells overnight in 5% CO2 at 37° C. IL-4 and IL-10 cytokine levels in the conditioned medium were then quantified using a sandwich ELISA kit. Compounds were screened at 10, 1, 0.1, 0.01 and 0.001 μM.
Background: In an ELISA, binding on a coated surface is turned into a signal by an enzyme label.

Another series has as its system IL-10. The series can be described thus: Mediator release, IL-10 (Con A-stimulated PBML, sandwich ELISA). The following applies: Homo sapiens, IL-10 release. Type of series: cell-based. The protocol: as §1
Another series relates to B-lymphocyte cells. Put plainly: Cell Proliferation, B-Cell + LPS ([3H]thymidine incorporation). As to conditions: Mus musculus, B-Cell + LPS. The format is cell-based, balb/c mice. The protocol: B-lymphocyte cells isolated from the spleen of balb/c mice weighing 17±1 g were used. Test compound and/or vehicle were incubated with the cells (1.5×10^6/ml) in the presence of 10 μg/ml lipopolysaccharide (LPS) in AIM-V medium pH 7.4 at 37° C. for 24 hours. [^3H]Thymidine (120 nM) was then added for an additional overnight incubation period. Thymidine incorporation was assessed by liquid scintillation counting.
(§2) Test compound-induced suppression of cell proliferation by 50 percent or more (≧50%) relative to vehicle control response indicates significant inhibitory activity.
(Incorporation of labelled thymidine or its analogues reports DNA synthesis.)

In the next series the test system is T-lymphocyte cells. The series can be described thus: Cell Proliferation, T-Cell + Con A ([3H]thymidine incorporation). Type of series: cell-based, balb/c mice. The following applies: Mus musculus, T-Cell + Con A. The protocol: T-lymphocyte cells isolated from thymus of balb/c mice weighing 17±1 g were used. Test compound and/or vehicle is incubated with the cells (4×10^6/ml) in the presence of 3 μg/mL Concanavalin A (Con A) in AIM-V medium pH 7.4 at 37° C. for 24 hours. [^3H]Thymidine (120 nM) was then added for an additional overnight incubation period. Thymidine incorporation was assessed by liquid scintillation counting.
as §2

For series [2], the system named is Experimental Autoimmune Encephalomyelitis (EAE). Put plainly: Acute EAE, daily dosing for 15 days (Example 5). Type of series: in vivo, guinea pigs. The following applies: Symadex 6 mg/kg, mitoxantrone 0.35 mg/kg. The protocol: Accordingly, three randomized cohorts of guinea pigs with EAE induced by the method of Example 2, were treated, respectively, with 6 mg/kg of Symadex™ (full salt hydrate) and 0.35 mg/kg of mitoxantrone. Animals were treated daily, by intraperitoneal injection, for 15 days, starting on day 7 post immunization. Controls were treated with vehicle. We reasoned that 15 consecutive, 6 mg/kg doses of Symadex™ would represent a level of drug exposure that would be commensurate with the “20 mg/kg every 72 hours” regimen in Example 4 and consistent with a mid level exposure between the 20 mg/kg and the 40 mg/kg schedule given weekly, in Example 2. The mitoxantrone dose was selected to reflect a typical high dose given to rats or mice by daily dosing in the prior art, but allometrically scaled to the guinea pig.

Where [3] appears, read: 1 nM, read-out: % Growth Inhibition.
Where [4] appears, read: 10 nM, read-out: % Growth Inhibition.
Where [5] appears, read: 0.1 μM, read-out: % Growth Inhibition.
[6] abbreviates: 1 μM, read-out: % Growth Inhibition.
[7] abbreviates: 10 μM, read-out: % Growth Inhibition.

For `CN(Cc1cnc2nc(N)nc(N)c2n1)c1ccc(C(=O)N[C@@H](CCC(=O)O)C(=O)O)cc1` [Methotrexate], in series [1], the “benefit in antibody induced arthritis models” value is “diminishing benefit”.
In the case of `O=C1c2c(O)ccc(O)c2C(=O)c2c(NCCNCCO)ccc(NCCNCCO)c21` [Mitoxantrone, reference compound], in the series on IL-4 (setting [3]), the % inhibition of IL-4 release at 0.001 µM turned out to be 11%. Further, the % inhibition of IL-4 release at 0.01 µM in the series on IL-4 (setting [4]) was 13%. In the series with IL-4 (setting [5]), the % inhibition of IL-4 release at 0.1 µM was determined as 18%. The % inhibition of IL-4 release at 1 µM with IL-4 (setting [6]) was -4%. Moreover, the % inhibition of IL-4 release at 10 µM in the series with IL-4 (setting [7]) turned out to be 108%. The IC50 worked out at 2960 nM with IL-4 (IL-4 release), 759 nM with IL-10, 7.31 nM with B-lymphocyte cells and 32 nM with T-lymphocyte cells. The inhibition at 0.001 µM with IL-10 (setting [3]) is 2%; with B-lymphocyte cells (setting [3]), 18%; with T-lymphocyte cells (setting [3]) it was -1%. In addition, the values for the inhibition at 0.01 µM in the series with IL-10 (setting [4]), in the series with B-lymphocyte cells (setting [4]) and in the series on T-lymphocyte cells (setting [4]) were 1%, 54% and 19%, respectively. Besides, the inhibition at 0.1 µM with IL-10 (setting [5]) is 5%; with B-lymphocyte cells (setting [5]), 93%; in the series on T-lymphocyte cells (setting [5]), 80%. Also, the inhibition at 1 µM in the series on IL-10 (setting [6]) is 60%; in the series with B-lymphocyte cells (setting [6]), 102%; in the series on T-lymphocyte cells (setting [6]), 103%. For the same compound, the inhibition at 10 µM was 102% in the series with IL-10 (setting [7]), 102% in the series with B-lymphocyte cells (setting [7]) and 103% in the series with T-lymphocyte cells (setting [7]). The “clinical score (neurological impairment)” value in series [2] (daily i.p. for 15 days from day 7) is on record as “the initial rise in neurological impairment is arrested”. Further, the weight gain result in series [2] (daily i.p. for 15 days) is listed as “impairs weight gain”. Besides, the “reduction of meningeal inflammation (M) pathology score” value in series [2] (necropsy after 15 daily doses) was “statistically significant reduction in meningeal inflammation”. In addition, in series [2] (necropsy after 15 daily doses), the “reduction of perivascular cuffing (P), myelitis (E) and demyelination (D) pathology scores” value is “statistically significant differences (p value<0.05) from control”.

As a reminder, the IC50 is the point on the concentration scale where inhibition reaches its midpoint. Usually inhibition stands for the change of the read-out against control, counted positive when it falls.
